According to ChEMBL document CHEMBL1127176, “Restricted rotation analogs of S-adenosylmethionine: synthesis, evaluation as inhibitors of S-adenosylmethionine decarboxylase, and potential use as selective antitrypanosomal agents” (Bioorg Med Chem Lett, 1993):

How the values were obtained:
[1] = system: HL-60; experiment: Tested for the ability to traverse cell membranes and to alter ratio of AdoMet to S-adenosyl-homocysteine (AdoHcy) in HL60 human promyelocytic leukemia cells; type: functional, cell-based
[2] = system: Trypanosoma brucei; experiment: Tested for antitrypanosomal activity against blood forms of Trypanosoma uM concentration; type: functional
[3] = system: HT-29; experiment: Tested for the ability to traverse cell membranes and to alter ratio of AdoMet to S-adenosyl-homocysteine (AdoHcy) in HT-29 human colon carcinoma; IA means inactive; type: functional, cell-based
[4] = system: L1210; experiment: Tested for the ability to traverse cell membranes and to alter ratio of AdoMet to S-adenosyl-homocysteine (AdoHcy) in L1210 murine lymphocytic leukemia cells; IA means inactive; type: functional, cell-based, Mus musculus

Row | Structure (SMILES) | IC50 [1] | IC50 [3] | IC50 [4] | Inhibition [2]
1 | Nc1ncnc2c1ncn2[C@@H]1O[C@H](CSC2CCNC2)[C@@H](O)[C@H]1O.O=S(=O)(O)O (stereo partly drawn) |  |  |  | 40%
2 | C[S+](C[C@H]1O[C@@H](n2cnc3c(N)ncnc32)[C@H](O)[C@@H]1O)[C@H]1CN[C@H](C(=O)O)C1.O=S(=O)(O)O.O=S(=O)([O-])O (stereo partly drawn) | > 1000 µM |  |  | 34%
3 | C[S+](C[C@H]1O[C@@H](n2cnc3c(N)ncnc32)[C@H](O)[C@@H]1O)C1CCNC1.O=S(=O)(O)O.O=S(=O)([O-])O (stereo partly drawn) |  |  |  | 49%
4 | Nc1ncnc2c1ncn2[C@@H]1O[C@H](CS[C@@H]2CN[C@H](C(=O)O)C2)[C@@H](O)[C@H]1O.O=S(=O)(O)O | > 1000 µM |  |  | 30%

Now from value to compound, other results behind:

Row | IC50 [1] | IC50 [3] | IC50 [4] | Structure (SMILES) | Inhibition [2]
5 | > 1000 µM |  |  | Nc1ncnc2c1ncn2[C@@H]1O[C@H](CS[C@H]2CN[C@H](C(=O)O)C2)[C@@H](O)[C@H]1O.O=S(=O)(O)O | 41%
6 |  | Not Active | Not Active | C[S+](C[C@H]1O[C@@H](n2cnc3c(N)ncnc32)[C@H](O)[C@@H]1O)C1C=C[C@H](N)C1.O=S(=O)(O)O.O=S(=O)([O-])O (stereo partly drawn) | 50%
7 | > 1000 µM |  |  | C[S+](C[C@H]1O[C@@H](n2cnc3c(N)ncnc32)[C@H](O)[C@@H]1O)C1CN[C@H](C(=O)O)C1.O=S(=O)(O)O.O=S(=O)([O-])O (stereo partly drawn) | 64%
